Experiment [1] addresses T1, rat MCH-1 (Rattus norvegicus, UniProt P97639). Put plainly: Radioligand binding assay at cloned rat MCH1 receptor, [3H]Compound A, Peakr293 cell membranes. Also on record: expressed in transfected cells; host or cells: Human embryonic kidney Peak rapid 293 cells (Peakr293), transient, calcium phosphate; membranes. Conditions: 0.08 nM [3H]Compound A, 25° C., 90 minutes. The method, then:
For binding assays, pellets of transfected cells are suspended in ice-cold buffer (20 mM Tris.HCl, 5 mM EDTA, pH 7.4) and homogenized by sonication for 7 sec. The cell lysates are centrifuged at 200×g for 5 min at 4° C. The supernatants are then centrifuged at 40,000×g for 20 min at 4° C. The resulting pellets are washed once in the homogenization buffer and suspended in binding buffer (see methods for radioligand binding). Protein concentrations are determined by the method of Bradford (1976) using bovine serum albumin as the standard. Binding assays are usually performed immediately, however it is possible to prepare membranes in batch and store frozen in liquid nitrogen for future use.
Radioligand binding assays for the rat MCH1 receptor were carried out using plasmid pcDNA3.1-rMCH1-f (ATCC Patent Deposit Designation No. PTA-3505). Plasmid pcDNA3.1-rMCH1-f comprises the regulatory elements necessary for expression of DNA in a mammalian cell operatively linked to DNA encoding the rat MCH1 receptor so as to permit expression thereof. Plasmid pcDNA3.1-rMCH1-f was deposited on Jul. 5, 2001, with the American Type Culture Collection (ATCC), 12301 Parklawn Drive, Rockville, Md. 20852, U.S.A. under the provisions of the Budapest Treaty for the International Recognition of the Deposit of Microorganisms for the Purposes of Patent Procedure and was accorded ATCC Patent Deposit Designation No. PTA-3505.
Human embryonic kidney Peak rapid 293 cells (Peakr293 cells) were transiently transfected with DNA encoding the MCH1 receptor utilizing the calcium phosphate method and cell membranes were prepared as described above. Binding experiments with membranes from Peakr293 cells transfected with the rat MCH1 receptor were performed with 0.08 nM [^3H]Compound A (custom labeled by Amersham) (the synthesis of Compound A is described in detail below) using an incubation buffer consisting of 50 mM Tris pH 7.4, 10 mM MgCl2, 0.16 mM PMSF, 1 mM 1,10 phenantroline and 0.2% BSA. Binding was performed at 25° C. for 90 minutes. Incubations were terminated by rapid vacuum filtration over GF/C glass fiber filters, presoaked in 5% PEI using […] Tris pH 7.4 as wash buffer. In all experiments, nonspecific binding is defined using […] Compound A.
The compounds described above were assayed using cloned rat MCH1.

A further experiment concerns the target human MCH-1 (Homo sapiens, UniProt Q99705). The note with it: one range printed for rat and human; cited from earlier work.
The target of a further experiment is MCH-1 receptor (Rattus norvegicus, UniProt P97639). Conditions: in vivo; cited from earlier work.
Chain of MCH-1 receptor (P97639 whole entry): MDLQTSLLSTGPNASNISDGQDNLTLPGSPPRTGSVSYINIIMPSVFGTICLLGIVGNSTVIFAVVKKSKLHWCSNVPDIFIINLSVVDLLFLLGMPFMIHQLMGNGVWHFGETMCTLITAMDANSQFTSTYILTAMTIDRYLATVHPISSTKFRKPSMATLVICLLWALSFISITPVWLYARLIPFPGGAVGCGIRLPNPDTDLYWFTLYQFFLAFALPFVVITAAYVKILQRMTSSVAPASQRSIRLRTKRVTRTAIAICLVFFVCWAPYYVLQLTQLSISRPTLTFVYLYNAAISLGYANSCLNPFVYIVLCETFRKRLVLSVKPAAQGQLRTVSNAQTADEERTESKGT
In experiment [2] the target is T1, rat MCH-1. Conditions: one range printed for rat and human; cited from earlier work.
A further experiment has as its system G4F-7 cells. Conditions: cited from earlier work.

T1 sequence (P97639 whole entry): as above
Chain of human MCH-1 (Q99705 whole entry): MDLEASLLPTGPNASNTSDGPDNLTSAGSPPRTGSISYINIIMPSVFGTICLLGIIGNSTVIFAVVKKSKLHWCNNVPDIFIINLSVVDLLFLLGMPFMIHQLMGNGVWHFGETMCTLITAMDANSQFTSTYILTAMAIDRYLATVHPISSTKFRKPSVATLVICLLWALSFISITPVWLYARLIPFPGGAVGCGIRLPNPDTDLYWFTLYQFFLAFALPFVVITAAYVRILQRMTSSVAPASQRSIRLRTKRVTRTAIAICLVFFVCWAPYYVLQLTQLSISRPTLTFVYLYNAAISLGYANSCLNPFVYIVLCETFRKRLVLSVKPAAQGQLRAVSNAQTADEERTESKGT

One may read the Ki as a measure of affinity in units of concentration, obtained from inhibition or displacement. Regarding `COc1ccccc1CCCCC(=O)Nc1cccc(C2CCNCC2)c1` [Example 1, 5-(2-Methoxyphenyl)-N-[3-(4-Piperidinyl)Phenyl]Pentanamide], the Ki on rat MCH-1 [1] is 79.6 nM.
`O=C(CCCCc1ccccc1)Nc1cccc(C2CCNCC2)c1` [Example 2, 5-Phenyl-N-[3-(4-Piperidinyl)Phenyl]Pentanamide]: the Ki at rat MCH-1 [1] was 197 nM.
Still for that read-out and setting: under `O=C(CCCCC(=O)c1ccccc1)Nc1cccc(C2CCNCC2)c1` [Example 3, 6-Oxo-6-Phenyl-N-[3-(4-Piperidinyl)Phenyl]Hexanamide] stands 1100 nM; under `O=C(Nc1cccc(C2CCNCC2)c1)c1cccnc1Oc1ccccc1` [Example 4, 2-Phenoxy-N-[3-(4-Piperidinyl) Phenyl]Nicotinamide], 353 nM; under `COc1ccc(CCCCC(=O)Nc2cccc(C3CCNCC3)c2)cc1` [Example 5, 5-(4-Methoxyphenyl)-N-[3-(4-Piperidinyl)Phenyl]Pentanamide], 476 nM.
For the compound `O=C(CCCCCNc1ccc(F)c(F)c1)Nc1cccc(C2CCNCC2)c1` [Example 6, 6-(3,4-Difluoroanilino)-N-[3-(4-Piperidinyl) Phenyl]Hexanamide], on rat MCH-1 [1], the Ki was 438 nM.
Same read-out and setting: as for `COC(=O)C1=C(C)NC(=O)N(C(=O)NCCCC(=O)Nc2cccc(C3CCNCC3)c2)C1c1ccc(F)cc1` (centres unmarked) [Example 7, Methyl 4-(4-Fluorophenyl)-6-Methyl-2-Oxo-3-[({4-OXO-4-[3-(4-Piperidinyl)Anilino]Butyl}Amino)Carbonyl]-1,2,3,4-Tetrahydro-5-Pyrimidinecarboxylate], the figure is 142 nM; as for `O=C(CCCCC(=O)c1ccccc1)Nc1cc(C2CCNCC2)ccc1F` [Example 9, N-[2-Fluoro-5-(4-Piperidinyl) Phenyl]-6-Oxo-6-Phenylhexanamide], 313 nM.
Consider `COc1ccccc1CCCCC(=O)Nc1cc(C2CCNCC2)ccc1F` [Example 10, N-[2-Fluoro-5-(4-Piperidinyl)Phenyl]-5-(2-Methoxyphenyl)Pentanamide], for which, on rat MCH-1 [1], the inhibition constant (Ki) is 20.9 nM.
Same read-out and setting: under `COc1ccccc1CCCCC(=O)Nc1cc(C2CCNCC2)c(F)cc1F` [Example 11, N-[2,4-Difluoro-5-(4-Piperidinyl)Phenyl]-5-(2-Methoxyphenyl)Pentanamide] stands 46.6 nM; under `O=C(CCc1ccc(Oc2ccc(F)c(F)c2)cc1)Nc1cc(C2CCNCC2)ccc1F` [Example 12, 3-[4-(3,4-Difluorophenoxy)Phenyl]-N-[2-Fluoro-5-(4-Piperidinyl)Phenyl]Propanamide], 33.8 nM.
In the case of `CN(C)CC1CCc2cc(NC(=O)c3ccc(-c4ccc(F)cc4)cc3)ccc2C1` (centres unmarked) [Example T-226296], the “affinity for the MCH-1 receptor” value on human MCH-1 and on rat MCH-1 [2] was 5 to 9 nM each time. Also, the “food intake induced by the intracerebroventricular application of MCH” value at MCH-1 receptor is on record as “inhibit food intake”.
Usually Kd stands for the constant that tells how readily two partners part at equilibrium. In the case of [Phe^13,Tyr^19]-MCH, the Kd in the experiment on G4F-7 cells (radioiodinated ligand, G4F-7 cells) is 0.118 nM.
In the case of “native MCH: Melanin-concentrating hormone, a cyclic peptide”, in the experiment on G4F-7 cells (inhibition of radioiodinated [Phe13,Tyr19]-MCH binding), the Ki was 12 nM.
Consider α-MSH, for which the inhibition of binding result with G4F-7 cells (inhibition of radioiodinated [Phe13,Tyr19]-MCH binding, in words) was “not inhibited”.

(Values after patent publication US7473698B2, “Secondary amino anilinic piperidines as MCH1 antagonists and uses thereof” (H. Lunbeck A/S, priority 2003, dated 2009).)
